# In patent US6593342B1, “Pharmaceutical compositions comprising 2-quinolones” (Laboratoire L. Lafon, priority 1998, dated 2003):
# Tests used:
# colorectal line HT-29 = experiment: Clonogenic test (soft agar colony growth), HT-29; type: cell-based; details: 21 days, control = 100%, mean ± SEM
# Excerpt: 1—Interaction (Stimulation or Inhibition of Proliferation) With the Generation of Clonogenic Cells (Clonogenic Test)
# The test used is that described by Hamburger et al. (Science, 1977; 197, 461-463) and Salmon et al. (New England J. Med., 298, 1321-1327). A cell is considered clonogenic if it has the capacity to proliferate and to give rise to a cell colony. “Human tumor stem cells” are the cells which are the source of the neoplastic cells which constitute a given tumor. These tumor stem cells are responsible for the relapse processes which may be observed after surgical resection of primary tumors and are also responsible for the formation of metastases. In a tumor or a tumor cell line, these clonogenic stem cells differ from the other cells of the tumor or from the neoplastic cell line under consideration in that they conserve their capacity to proliferate in the absence of any solid support.
# In this test, the tumor cells are cultured on a semi-solid support consisting of agar. […] In a tumor cell population, cultured on such a support, it is these clonogenic cells (associated with an unlimited number of cell divisions and whose proliferation is referred to by M. I. Dawson as “anchorage-independent [clonal] growth”) which are capable of growing. The percentage of these clonogenic cells in a tumor or a cell line ranges between 0.1% and 0.001%.
# The influence of the compounds of formulae (I) and (Ia) on the growth of the cell colonies obtained by culturing, for example, the mammalian tumor lines MCF7 and MXT and the colorectal line HT-29 on the semi-liquid culture medium known as “soft agar” was measured. On such a medium, only the clonogenic cells referred to by M. I. Dawson as “anchorage-independent (clonal) cells” survive and grow. The growth of these cells in such a “non-adherent” mode bears witness to their degree of tumorigenicity. The inhibition of the growth of the size of a tumor in which a larger number of clonogenic cells has developed then becomes the evidence of reinforced cytotoxic activity.
# Conversely, this test can also reveal that a compound is capable of inhibiting the generation/proliferation of clonogenic cells, thus making the tumor less able to grow and thus reducing the population of tumor cells.
# The tumor cell lines studied are maintained in culture in 25 cm^2 falcon dishes. They are then trypsinized and the cells are fully dissociated from each other. The percentage of live cells is determined after staining with trypan blue. A cell suspension at a concentration of from 5·10^4 to 15·10^4 cells/ml (depending on the cell type under consideration) is prepared in a 0.3% agar solution. Next, 200 μl of this suspension are inoculated in Petri dishes 35 mm in diameter, in which are placed 3 ml of a base layer consisting of a 0.5% agar solution. The 200 μl of cell suspension are in turn covered with 1.8 ml of an upper layer consisting of a 0.3% agar solution. The dishes are then placed in an incubator at 37° C., 5% CO2 and 70% humidity until the treatment. This treatment is carried out about 1 to 2 hours after the inoculation. The test compounds are prepared at a concentration 100 times greater than the desired concentration and 50 μl of these treating solutions are placed over the upper layer of agar in the corresponding dishes. In the present study, the final concentration of the test products is 10^−5, 10^−7 and 10^−9 M. The dishes are then kept in an incubator for 21 days. On the 21st day the dishes are treated by depositing on the upper layer 100 μl of a 1 mg/ml solution of MTT (3-(4,5-dimethylthiazol-2-yl)-2,5-diphenyltetrazolinium bromide prepared with RPMI 1640 medium) for 3 h at 37° C. After this period, the cell colonies are fixed by adding 2 ml of formalin per dish. After fixing for 24 hours, the formalin is evaporated off and the number of stained cell colonies, thus consisting of metabolically active cells, and whose surface area is greater than 100 μm^2, is determined using an inverted microscope. […]
# J82 = experiment: MTT test, J82; type: cell-based; details: Homo sapiens, 10^−5 M, 72 hours, control = 100%, mean ± SEM, read-out: average optical density (MTT), percentage relative to control
# Protocol: The influence of the compounds of formulae (I) and (Ia) on non-clonogenic cells was evaluated with the aid of the MTT calorimetric test.
# The principle of the MTT test is based on the mitochondrial reduction, by the metabolically active live cells, of the yellow-colored product MTT (3-(4,5-dimethylthiazol-2-yl)-2,5-diphenyltetrazolium bromide) to a blue-colored product, formazan. The amount of formazan thus obtained is directly proportional to the amount of live cells present in the culture well(s). This amount of formazan is measured by spectrophotometry.
# The cell lines are maintained as a monolayer culture at 37° C. in stoppered culture dishes containing MEM 25 MM HEPES (Minimum Essential Medium) base medium. This medium is suited to the growth of a range of various mammalian diploid or primary cells. This medium is then supplemented with:
# an amount of 5% of FCS (Foetal Calf Serum) decomplemented at 56° C. for 1 hour,
# 0.6 mg/ml of L-glutamine,
# 200 μg/ml of streptomycin,
# The 12 human cancer cell lines which were used were obtained from the American Type Culture Collection (ATCC, Rockville, Md., USA). These 12 cell lines are:
# J82 (code ATCC: HTB-1) and T24 (code ATCC: HTB-4) which are two bladder cancers,
# Experimentally: 100 μl of a cell suspension containing 20 000 to 50 000 (depending on the cell type used) cells/ml of culture medium are inoculated in 96-well flat-bottomed multi-well plates and are incubated at 37° C., under an atmosphere comprising 5% CO2 and 70% humidity. After incubation for 24 hours, the culture medium is replaced with 100 μl of fresh medium containing either the various test compounds at concentrations ranging from 10^−5 to 10^−10 M or the solvent used to dissolve the test products (control condition). After incubation for 72 hours under the above conditions, the culture medium is replaced with 100 μl of a yellowish solution of MTT dissolved at a rate of 1 mg/ml in RPMI 1640. The microplates are reincubated for 3 hours at 37° C. and are then centrifuged for 10 minutes at 400×g. The yellowish solution of MTT is removed and the blue formazan crystals formed in the cell are dissolved in 100 μl of DMSO. The microplates are then shaken for 5 minutes. The intensity of the resulting blue coloration, and thus of the conversion of the yellow product MTT into blue formazan by the cells that are still alive at the end of the experiment, is quantified by spectrophotometry using a Dynatech Immunoassay System machine at wavelengths of 570 nm and 630 nm corresponding, respectively, to the maximum absorption wavelengths of formazan and to the background noise. Software incorporated in the spectrophotometer calculates the average optical density values and the standard deviation (SD) and standard error of mean (SEM) values.
# By way of example, the results of the average optical density, expressed as a percentage relative to the average optical density measured under the control condition (set equal to 100%), obtained at a concentration of 10^−5 M on the 12 abovementioned tumor cell lines are given in Table II.
SMILES,"average number of clones of clonogenic cells, percentage relative to control (colorectal line HT-29; 10^−5 M)","average number of clones of clonogenic cells, percentage relative to control (colorectal line HT-29; 10^−7 M)","average number of clones of clonogenic cells, percentage relative to control (colorectal line HT-29; 10^−9 M)",viability at 10 µM (J82)
"COc1ccc(-c2cc3c(OC)cc(OC)cc3[nH]c2=O)cc1 [CRL8246, 5,7-Dimethoxy-3-(4-methoxyphenyl)-1,2-dihydro-2-quinolinone]",70.9 ± 2.8%,103.3 ± 3.6%,104 ± 2.7%,87.6 ± 2.2%
"COc1ccc(-c2cc3c(OC)cc(OC)cc3n(CCC#N)c2=O)cc1 [CRL8247, 3-[5,7-Dimethoxy-3-(4-methoxyphenyl)-2-oxo-1,2-dihydro-1-quinolinyl]propanenitrile]",72.7 ± 3.6%,98.3 ± 4.9%,104.5 ± 2.7%,55 ± 2.3%
"COc1ccc(-c2cc3c(OC)cc(OC)cc3n(CCc3nnn[nH]3)c2=O)cc1 [CRL8256, 1-[2-(1H-1,2,3,4-Tetrazol-5-yl)ethyl]-5,7-dimethoxy-3-(4-methoxyphenyl)-1,2-dihydro-2-quinolinone]",97.1 ± 4.3%,100.5 ± 4.1%,107.5 ± 3.7%,77.8 ± 0.8%
"CCN(CC)C(=O)CCn1c(=O)c(-c2ccc(OC)cc2)cc2c(OC)cc(OC)cc21 [CRL8283, N,N-Diethyl-3-[5,7-dimethoxy-3-(4-methoxy-phenyl)-2-oxo-1,2-dihydro-1-quinolinyl]propanamide]",88.9 ± 0.2%,90.9 ± 3.1%,106.1 ± 1.4%,71.6 ± 2.2%
"CCN(CC)C(=O)Cn1c(=O)c(-c2ccc(OC)cc2)cc2c(OC)cc(OC)cc21 [CRL8315, N,N-Diethyl-2-[5,7-dimethoxy-3-(4-methoxy-phenyl)-2-oxo-1,2-dihydro-1-quinolinyl]acetamide]",103.5 ± 4.5%,111.9 ± 5.4%,112.9 ± 2.4%,65.9 ± 1.3%
"COc1ccc(-c2cc3c(OC)cc(OC)cc3n(CCN(C)C)c2=O)cc1 [CRL8316, 1-[2-(Dimethylamino)ethyl]-5,7-dimethoxy-3-(4-methoxyphenyl)-1,2-dihydro-2-quinolinone]",50.6 ± 1.8%,80.1 ± 2.9%,101.6 ± 3.2%,26.9 ± 0.9%
